Earlier results in patent publication US20170273596A1, “METHOD FOR MONITORING SWALLOWING” (NESTEC S.A., priority 2014, published 2017).

Columns and labels:
[1] = database Episuite 4.1
[2] = database Episuite 4.1; remark: listed apart in the source

Volatility: Air/water partition coefficient log K [w/v] [1] | Lipophilicity: Oil/Water partition coefficient log Kow [w/v] [2] | Compound
−2.31 |  | 2-Methylpropanal
−2.19 | 1.23 | CC(C)CC=O [3-Methylbutanal]
−2.56 | −0.17 | CC=O [Acetaldehyde]
−1.49 | 0.92 | CSC [Dimethylsulfide]
−1.79 | 1.85 | CCCC(=O)OCC [Ethylbutyrate]
−8.47 | 1.05 | COc1cc(C=O)ccc1O [Vanillin]

The remaining lines, values behind:

Compound | Volatility: Air/water partition coefficient log K [w/v] [1] | Lipophilicity: Oil/Water partition coefficient log Kow [w/v] [2]
CC(=O)C(C)=O [2,3-Butanedione] | −5.09 | −1.34
CCC(=O)C(C)=O [2,3-Pentanedione] | −4.97 | −0.85
CCC(C)C=O (stereo not drawn) [2-Methylbutanal] | −2.20 | 1.23
C=C(C)[C@H]1CC=C(C)CC1 [Limonene] | 0.12 | 4.38
CS [Methanethiol] | −0.97 | 0.78
